Measured values taken from US8173604B2, “Inhibition of Skp2-cyclin a interaction” (Albert Einstein College of Medicine of Yeshiva University, priority 2006, dated 2012).
Like-named read-outs stand apart in the source and are kept apart here. Ends that are not written are not given here.

Columns and labels:
[1] = molecular target: T1, cyclin A/Cdk2 (Homo sapiens, UniProt P20248+P24941); experiment: In vitro cyclin A/Cdk2 kinase assay with purified proteins (GST-Rb-C substrate); format: biochemical
T1 construct: made in house; host or cells: insect cells (baculovirus)
Protocol: (§1) Cyclin A/Cdk2 kinase assays were performed as described previously (Ji et al., 2004). Both immuno-purified myc-cyclin A/Cdk2 on beads and GST-purified and eluted GST-cyclin A/Cdk2 (baculovirus vectors for GST-cyclin A and Cdk2 were provided by Brian Dynlacht) were used. The amounts of purified proteins were determined by comparing them with known amounts of standard proteins in Coomassie blue stained gels. Phosphorylation of GST-Rb-C was quantified with the ImageQuant software. The Ki of various proteins was determined by non-linear least squares analysis. To determine the amounts of various proteins in synchronized HeLa cells, extracts representing 7.5×10^4 HeLa cells were resolved with known amounts of purified proteins and compared in the same Western blots. Actual amounts of proteins in 7.5×10^4 HeLa cells were then determined (for example, the amounts of p27, Skp2, and cyclin A in 7.5×10^4 HeLa cells were determined to be about 0.1, 0.2, and 0.1 pmoles, respectively, at 14 hours post-replating; and about 0.01, 0.1, and 1.0 pmoles, respectively, at 19 hours post-replating).
For kinase reactions, insect cell-produced and purified GST-cyclin A/Cdk2 was used at a concentration of ˜3 nM, which was the lowest concentration that yielded readily detectible phosphorylation of GST-Rb-C here. Purified p27, GST-Skp2, and Skp2N were titrated into the kinase reaction over a wide range of concentrations (FIGS. 7A, B, and C). Phosphorylation of Rb-C was measured and plotted, and the Ki of these various proteins were determined by non-linear least squares analysis (FIG. 7F).
Since Skp2 competes with p27 for binding to cyclin A and Skp2's Ki is about 100-fold higher than p27's Ki, it can be reasoned that, at concentrations well below its Ki, Skp2 might be able to protect cyclin A/Cdk2 from inhibition by p27. To test this hypothesis, the same cyclin A/Cdk2 kinase assay was carried out to determine the inhibitory activity of p27 in the presence of 80 nM of Skp2N.
It was then determined whether the 4060 peptide could prevent Skp2N from protecting cyclin A/Cdk2 from inhibition by p27. […] When 80 nM of Skp2N was included, 5 nM of p27 lost its ability to inhibit the kinase activity (lane 3). […] These findings indicate that the Skp2-cyclin A interaction is also a potential target to inhibit cyclin A kinase activity in tumor cells, particularly those overexpressing Skp2.
To test this prediction, various peptides were added to an in vitro kinase reaction with purified cyclin A/Cdk2 (˜3 nM concentration). An E2F1-derived RxL peptide, LDL peptide, was used for comparison since it could inhibit cyclin A/Cdk2 kinase activity (Sun et al., 2006, and see next section). Since a TAT sequence was later added to these peptides for trans-membrane delivery (see next section), two versions of each peptide (without TAT and with TAT) was used in these kinase assays. These two versions of peptides yielded identical results and therefore only presented results with one version of the peptides.
The effects of the 4060 peptide on cyclin A/Cdk2 kinase activity in the presence of Skp2 and p27 were then determined.

[2] = molecular target: T2, interaction between cellular Skp2 and cyclin A/Cdk2 (Homo sapiens, UniProt P20248); experiment: Coimmunoprecipitation with cyclin A from peptide-treated U2OS cells; format: cell-based; conditions: 50 μM peptide, twelve hours
T2 construct: endogenous in cells; host or cells: U2OS
Protocol: (§2) FIG. 12 is photographs of western blots and kinase assays and graphs showing the effects of trans-membrane delivery of the 4060 peptide. In Panel A, U2OS cells were treated with 50 μM of indicated peptide for twelve hours. Cell extracts were prepared for immunoprecipitation and Western blot analysis as indicated. […] In Panel C, the same extracts were used in IP-kinase assays as indicated. The extent of phosphorylation was quantified and plotted.
(§3) The loss of Skp2-cyclin A/Cdk2 interaction was not due to a reduction in levels of these proteins (FIG. 12B). Importantly, cellular p27 protein levels were not affected by the blocking peptide. […] Here, it is important to point out that although we used p27 as an inhibitor of cyclin A-associated kinase activity in purified kinase reactions with the 4060 blocking peptide shown in FIG. 11, the effects of blocking Skp2-cyclin A interaction on cyclin A-associated kinase activity in cells is unlikely to be mediated by p27 alone. There was no significant interaction between p27 and cyclin A in U2OS cells before and after treatment of TAT-4060. p27 family members p21 and p57, and the pocket proteins p107 and p130 (Adams et al., 1996) may bind and inhibit cyclin A-associated kinase activity through the RxL-HP interaction mechanism. […]

[3] = test system: p27; experiment: Western blot of peptide-treated U2OS cell extracts; format: cell-based, human; conditions: U2OS cells, 50 μM peptide, twelve hours
Protocol: as §2, §3

[4] = test system: cyclin A-associated kinase activity; experiment: IP-kinase assay of anti-cyclin A and anti-Cdk2 immune complexes from peptide-treated U2OS cells; format: cell-based, human; conditions: 50 μM peptide, twelve hours, compared with TAT-4060AAAA or TAT-Umt
Protocol: as §2, §3

[5] = test system: U2OS cells
Protocol: It is currently unknown how peptide concentrations in the culture media translate into intro-cellular peptide concentrations.
Whether artificial manipulation of Skp2 protein levels in U2OS cells could change the IC50 of various peptides was also investigated.
(§4) Cell proliferation and survival assays. For the cell proliferation assay shown in FIG. 10D, 1×10^4 cells were plated in each well of 24 well plates and allowed to grow for a course of four days in the presence of 10% FBS. Cell numbers were counted every day from triplet wells. For cell survival assays in FIGS. 13, 14 and 15, 1×10^3 cells were plated in each well of 96 well plates and allowed to adhere overnight in the presence of 10% FBS. The cells were washed once with Opti-MEM (GIBCO) followed by incubation with different concentrations of peptides in Opti-MEM for 24 hours in triplicate. MTS assay was then performed following manufacturer's protocol (Promega).

[6] = test system: human diploid fibroblasts WI-38; experiment: Cell survival MTS assay, WI-38; format: cell-based; conditions: 120 μM, 24 hours
Protocol: In comparison, both TAT-Umt and TAT-4060 inhibited cyclin A/Cdk2 kinase activity in vitro at peptide concentrations of 100 μM (FIG. 11B). It is currently unknown how peptide concentrations in the culture media translate into intro-cellular peptide concentrations.
as §4

[7] = test system: HeLa cells; experiment: Cell survival MTS assay, HeLa; format: cell-based, human; conditions: high levels of Skp2
Description: IC50 of the 4060 peptide positively correlates with Skp2 protein abundance in cancer cells. Skp2 is frequently overexpressed at various levels in various cancer cells. If TAT-4060 kills cancer cells by disrupting Skp2-cyclin A interaction, higher peptide concentrations should be needed to kill cancer cells with higher levels of Skp2. In comparison, since TAT-LDL is believed to kill cancer cells by blocking access of cyclin A to E2F1, there need not be a direct correlation between effective TAT-LDL concentrations and cellular Skp2 protein levels. To test this prediction, Skp2 protein levels and IC50 of both TAT-4060 and TAT-LDL was determined for the panel of four cancer cell lines.
as §4

[8] = molecular target: T3, Skp2-cyclin A interaction (Homo sapiens, UniProt P20248); experiment: GST pull-down, blocking of Skp2-cyclin A interaction by peptides; format: binding; conditions: GST-Skp2N, myc-cyclin A/Cdk2 transfected 293T cell extracts
T3 construct: expressed in transfected cells; host or cells: 293T (cyclin A/Cdk2)
Protocol: (§5) GST pull down, p27 ubiquitylation assay, and cyclin A kinase assay. GST fusion proteins were purified on GSH-beads (Amersham), which were then incubated with transfected cell extracts for 1 hour in 4° C. with rocking. The beads were washed three times with lysis buffer (25 mM Hepes pH 7.6, 100 mM KCl, 0.1 mM EDTA, 10 mM MgCl2, 0.1% NP-40, 10% glycerol, 1 mM DTT) before analysis by SDS-PAGE and Western blotting.
(§6) Skp2-cyclin A interaction and p27-cyclin A interaction can be blocked by distinct peptides. An important aspect of the RxL-1-IP interaction is that it can be blocked by a short RxL peptide (Adams et al., 1996). If the Skp2-cyclin A/Cdk2 interaction and the p27-cyclin A/Cdk2 interaction are mediated by different sequences on both sides of the interaction, as shown above, it can be predicted that the RxL peptide should not block Skp2-cyclin A interaction. […] Peptide concentrations required for their respective blocking activities were similar for RxL and 4060 peptides.

[9] = molecular target: T4, p27-cyclin A interaction (Homo sapiens, UniProt P20248); experiment: GST pull-down, blocking of p27-cyclin A interaction; format: binding; conditions: GST-p27, myc-cyclin A/Cdk2 transfected 293T cell extracts
T4 construct: expressed in transfected cells; host or cells: 293T (cyclin A/Cdk2)
Protocol: as §5, §6
Skp2 competes with p27/p21, but not E2F1, for binding to cyclin A. Whether the apparently distinct Skp2-cyclin A interaction and p27-cyclin A interaction are competitive against each other was next evaluated. […] Whether the competition between Skp2 and p27/p21 for cyclin A binding could be observed in vivo with endogenous proteins under physiological conditions was next determined. […]

[10] = molecular target: T1, cyclin A/Cdk2; experiment: IP-kinase assay with myc-cyclin A/Cdk2 transfected 293T cell extract; format: biochemical; conditions: increasing amounts of peptide
Protocol: In panel A, an IP-kinase assay was performed with myc-cyclin A/Cdk2 transfected 293T cell extract in the presence of increasing amounts of RxL or 4060 peptides. Phosphorylation of GST-Skp2N is visible in this gel. […] As indicated, increasing amounts of the 4060 or 4060AAAA peptides were included in the reactions. Phosphorylation of Rb-C was quantified and plotted as shown.
as §1, with “To determine the amounts of various proteins in synchronized HeLa cells, extracts representing 7.5×10^4 HeLa cells were resolved with known amounts of purified proteins and compared in the same Western blots.” left out, “post-replating). […]” for “post-replating).”

Sequence | Inhibitory effect on cyclin A/Cdk2 kinase activity ([1]; 1 μM and 10 μM peptide) | Inhibition of cyclin A/Cdk2 kinase activity ([1]; 100 μM peptide) | Dissociation of interaction between cellular Skp2 and cyclin A/Cdk2 [2] | Cellular p27 protein levels [3] | Kinase activity in anti-cyclin A and anti-Cdk2 immune complexes [4] | Concentration of peptide to achieve 40% killing ([5]; U2OS with artificial decrease in Skp2 protein levels (knockdown)) | Cell killing effectiveness ([5]; U2OS with artificial increase of Skp2 protein levels (overexpression)) | Cell killing effect of single peptide ([5]; U2OS, 1 or 2 μM, 24 hours) | Concentration of peptide to achieve 40% killing ([5]; U2OS, Skp2 levels not manipulated) | Cell killing effect ([5]; U2OS, twenty four hours after addition of peptides) | IC50 ([5]; read-out: IC50 of cell killing, U2OS, 24 hours, MTS) | WI-38 cells killed [6] | Peptide concentration required for cell killing [7] | Blocking of Skp2N-cyclin A interaction [8] | Blocking of p27-cyclin A interaction [9] | Effect of peptide itself on cyclin A/Cdk2 kinase activity towards Rb-C [10]
YGRKKRRQRRRGKTSELLSGMGVSALEKEE [TAT-4060] | did not show inhibitory effect | significant inhibition | resulted in dissociation | not affected | clear reduction | 20 µM | nearly as ineffective as TAT-Umt | neither TAT-LDL nor TAT-4060 exhibited any cell killing effects | 40 µM | induced significant cell death | 35 µM | no effect | very high concentrations | – | – | –
SACRNLFG (peptide RxL) [reference compound] | – | – | – | – | – | – | – | – | – | – | – | – | – | but not the Skp2N-cyclin A interaction | blocking the p27-cyclin A interaction | inhibited the kinase activity
